Measured values as given in PubChem BioAssay AID330 (DTP/NCI, 2004).
Values joined by “and” are separate entries in the source; they are usually repeats but may differ in a detail not shown here. Identical values can stand only once. Toxic doses and inconclusive results are not listed.

Test system: P388 leukemia ip, CD2F1 mice, survival T/C
Assay: NCI In Vivo Anticancer Drug Screen. Data for tumor model P388 Leukemia (intraperitoneal) in CD2F1 (CDF1) mice
Details: endpoint: median survival time, higher = longer survival
Summary of the method: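 Mice carrying the transplanted tumor received test compound or vehicle. Survival was recorded in each group, and the value is the treated-group measurement divided by that of the vehicle-treated control group.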

[1] = dose: 50.0 mg/kg/injection, schedule: Q01DX005 (ip), vehicle: saline with Tween-80
[2] = dose: 200.0 mg/kg/injection, schedule: Q01DX005 (ip), vehicle: saline with Tween-80
[3] = dose: 100.0 mg/kg/injection, schedule: Q01DX001 (ip), vehicle: saline with Tween-80
[4] = dose: 200.0 mg/kg/injection, schedule: Q01DX001 (ip), vehicle: saline with Tween-80
[5] = dose: 400.0 mg/kg/injection, schedule: Q01DX001 (ip), vehicle: saline with Tween-80
[6] = dose: 50.0 mg/kg/injection, schedule: Q01DX005 (ip), vehicle: Klucel (hydroxypropylcellulose) (HPC)
[7] = dose: 100.0 mg/kg/injection, schedule: Q04DX002 (ip), vehicle: saline with Tween-80

O=P(c1ccccc1)(c1ccccc1)c1ccccc1.O=P(c1ccccc1)(c1ccccc1)c1ccccc1.O=P(c1ccccc1)(c1ccccc1)c1ccccc1.O=P(c1ccccc1)(c1ccccc1)c1ccccc1.[Ce+3].[O-][Cl+3]([O-])([O-])O
T/C (dose: 50.0 mg/kg/injection, schedule: Q01DX009 (ip), vehicle: saline + Tween-80 + alcohol): 96 % of control | T/C (dose: 100.0 mg/kg/injection, schedule: Q01DX009 (ip), vehicle: saline + Tween-80 + alcohol): 89 % of control | T/C (dose: 200.0 mg/kg/injection, schedule: Q01DX009 (ip), vehicle: saline + Tween-80 + alcohol): 87 % of control

CCc1ccc([O-])c(C=NCCCN(C)CCCN=Cc2cc(C)ccc2[O-])c1.[Co+3].[N-]=[N+]=[N-]
T/C (dose: 60.0 mg/kg/injection, schedule: Q01DX005 (ip), vehicle: saline with Tween-80): 88 % of control | T/C (dose: 120.0 mg/kg/injection, schedule: Q01DX005 (ip), vehicle: saline with Tween-80): 91 % of control | T/C (dose: 240.0 mg/kg/injection, schedule: Q01DX005 (ip), vehicle: saline with Tween-80): 101 % of control

CN(Cc1ccco1)NC(=O)C(=O)NCc1ccco1
T/C [1]: 97 % of control | T/C [2]: 88 % of control

COC(=S)NCCn1c([N+](=O)[O-])cnc1C
T/C [3]: 110 % of control | T/C [4]: 100 % of control | T/C [5]: 108 % of control

N=C(N)c1cn(C2OC(CO)C(O)C2O)c2ncnc(N)c12 (stereo not drawn)
T/C (dose: 1.33 mg/kg/injection, schedule: Q01DX009 (ip), vehicle: saline): 178 % of control | T/C (dose: 2.0 mg/kg/injection, schedule: Q01DX009 (ip), vehicle: saline): 187 % of control | T/C (dose: 3.0 mg/kg/injection, schedule: Q01DX009 (ip), vehicle: saline): 183 % of control | T/C (dose: 4.5 mg/kg/injection, schedule: Q01DX009 (ip), vehicle: saline): 192 % of control | T/C (dose: 7.5 mg/kg/injection, schedule: Q04DX003 (ip), vehicle: saline): 163 % of control

CC1(C)C(=O)C=CC2(C)C1CC(O)C1(C)C2CCC2(C)C(c3ccoc3)OC(=O)C3OC321 (stereo not drawn)
T/C (dose: 1.5 mg/kg/injection, schedule: Q01DX009 (ip), vehicle: Klucel (hydroxypropylcellulose) (HPC)): 98 % of control | T/C (dose: 3.0 mg/kg/injection, schedule: Q01DX009 (ip), vehicle: Klucel (hydroxypropylcellulose) (HPC)): 103 % of control | T/C (dose: 6.0 mg/kg/injection, schedule: Q01DX009 (ip), vehicle: Klucel (hydroxypropylcellulose) (HPC)): 101 % of control | T/C (dose: 12.0 mg/kg/injection, schedule: Q01DX009 (ip), vehicle: Klucel (hydroxypropylcellulose) (HPC)): 102 % of control

O=S(=O)(CBr)OCCCl
T/C [1]: 120 % of control | T/C (dose: 150.0 mg/kg/injection, schedule: Q01DX005 (ip), vehicle: saline with Tween-80): 159 % of control | T/C [2]: 200 % of control

S=c1ncn(C2CCCC2)c(=S)[nH]1
T/C [6]: 93 % of control | T/C (dose: 100.0 mg/kg/injection, schedule: Q01DX005 (ip), vehicle: Klucel (hydroxypropylcellulose) (HPC)): 103 % of control | T/C (dose: 200.0 mg/kg/injection, schedule: Q01DX005 (ip), vehicle: Klucel (hydroxypropylcellulose) (HPC)): 100 % of control

O=C1c2ccccc2C(=O)N1/N=C/c1cccc(Cl)c1
T/C [7]: 100 % of control | T/C (dose: 200.0 mg/kg/injection, schedule: Q04DX002 (ip), vehicle: saline with Tween-80): 93 % of control | T/C (dose: 400.0 mg/kg/injection, schedule: Q04DX002 (ip), vehicle: saline with Tween-80): 89 % of control

CCOC(=O)/C=C/c1nc(OCC)c(C)c(C(=O)OCC)n1
T/C (dose: 12.5 mg/kg/injection, schedule: Q01DX009 (ip), vehicle: other): 95 % of control | T/C (dose: 25.0 mg/kg/injection, schedule: Q01DX009 (ip), vehicle: other): 102 % of control | T/C (dose: 50.0 mg/kg/injection, schedule: Q01DX009 (ip), vehicle: other): 98 % of control | T/C (dose: 100.0 mg/kg/injection, schedule: Q01DX009 (ip), vehicle: other): 103 % of control | T/C (dose: 200.0 mg/kg/injection, schedule: Q01DX009 (ip), vehicle: other): 90 % of control

COc1cc(/C(C)=N/N=C(\C)c2ccc(O)c(OC)c2)ccc1O
T/C [3]: 100 % of control | T/C [4]: 95 % of control | T/C [5]: 100 % of control

CC1=CC(C)(O)C=C(C)C1=O
T/C (dose: 3.13 mg/kg/injection, schedule: Q01DX009 (ip), vehicle: water): 105 % of control | T/C (dose: 6.25 mg/kg/injection, schedule: Q01DX009 (ip), vehicle: water): 97 % of control | T/C (dose: 12.5 mg/kg/injection, schedule: Q01DX009 (ip), vehicle: water): 96 % of control | T/C (dose: 25.0 mg/kg/injection, schedule: Q01DX009 (ip), vehicle: water): 100 % of control | T/C (dose: 50.0 mg/kg/injection, schedule: Q01DX009 (ip), vehicle: water): 99 % of control | T/C (dose: 100.0 mg/kg/injection, schedule: Q01DX009 (ip), vehicle: water): 98 % of control

C/C(=N\NC(N)=Nc1ccc(Cl)cc1)c1ccc(Cl)c(Cl)c1
T/C (dose: 25.0 mg/kg/injection, schedule: Q04DX002 (ip), vehicle: saline with Tween-80): 99 % of control | T/C (dose: 50.0 mg/kg/injection, schedule: Q04DX002 (ip), vehicle: saline with Tween-80): 102 % of control | T/C [7]: 102 % of control

COc1c2occc2c(NC(=O)C(F)(F)F)c2ccc(=O)oc12
T/C (dose: 100.0 mg/kg/injection, schedule: Q04DX002 (ip), vehicle: saline): 100 % of control | T/C (dose: 200.0 mg/kg/injection, schedule: Q04DX002 (ip), vehicle: saline): 101 % of control

CC(C)(C)NCC(O)COc1cccc2c1CCC(=O)N2 (stereo not drawn)
T/C (dose: 50.0 mg/kg/injection, schedule: Q01DX009 (ip), vehicle: saline with Tween-80): 100 % of control | T/C (dose: 100.0 mg/kg/injection, schedule: Q01DX009 (ip), vehicle: saline with Tween-80): 102 % of control | T/C (dose: 200.0 mg/kg/injection, schedule: Q01DX009 (ip), vehicle: saline with Tween-80): 97 % of control

O=C(Oc1c(F)c(F)c(F)c(F)c1F)N(CCCl)CCCl
T/C (dose: 100.0 mg/kg/injection, schedule: Q01DX001 (ip), vehicle: Klucel (hydroxypropylcellulose) (HPC)): 101 % of control | T/C (dose: 200.0 mg/kg/injection, schedule: Q01DX001 (ip), vehicle: Klucel (hydroxypropylcellulose) (HPC)): 104 % of control | T/C (dose: 400.0 mg/kg/injection, schedule: Q01DX001 (ip), vehicle: Klucel (hydroxypropylcellulose) (HPC)): 94 % of control

COc1cc(NCCCNCC(C)(C)C)c2ncccc2c1
T/C (dose: 1.25 mg/kg/injection, schedule: Q01DX009 (ip), vehicle: Klucel (hydroxypropylcellulose) (HPC)): 100 % of control | T/C (dose: 2.5 mg/kg/injection, schedule: Q01DX009 (ip), vehicle: Klucel (hydroxypropylcellulose) (HPC)): 95 % of control | T/C (dose: 5.0 mg/kg/injection, schedule: Q01DX009 (ip), vehicle: Klucel (hydroxypropylcellulose) (HPC)): 94 % of control | T/C (dose: 10.0 mg/kg/injection, schedule: Q01DX009 (ip), vehicle: Klucel (hydroxypropylcellulose) (HPC)): 99 % of control

O=C(NO)C1CCCCC1O (stereo not drawn)
T/C (dose: 12.5 mg/kg/injection, schedule: Q04DX003 (ip), vehicle: saline): 100 % of control | T/C (dose: 25.0 mg/kg/injection, schedule: Q04DX003 (ip), vehicle: saline): 100 % of control | T/C (dose: 50.0 mg/kg/injection, schedule: Q04DX003 (ip), vehicle: saline): 110 % of control | T/C (dose: 400.0 mg/kg/injection, schedule: Q04DX003 (ip), vehicle: saline): 110 % of control

CCOC(C#CC(C)=O)OCC
T/C (dose: 60.0 mg/kg/injection, schedule: Q01DX005 (ip), vehicle: saline): 106 % of control | T/C (dose: 120.0 mg/kg/injection, schedule: Q01DX005 (ip), vehicle: saline): 103 % of control | T/C (dose: 240.0 mg/kg/injection, schedule: Q01DX005 (ip), vehicle: saline): 103 % of control

CC1=CC2C(O)(CC3(CO)OC3C3C4C(C)(C)C4(OC(=O)c4ccccc4)C(OC(=O)c4ccccc4)C(C)C32O)C1=O (stereo not drawn)
T/C (dose: 50.0 micrograms/kg/injection, schedule: Q01DX005 (ip), vehicle: saline + alcohol): 94 % of control | T/C (dose: 100.0 micrograms/kg/injection, schedule: Q01DX005 (ip), vehicle: saline + alcohol): 97 % of control | T/C (dose: 200.0 micrograms/kg/injection, schedule: Q01DX005 (ip), vehicle: saline + alcohol): 99 % of control | T/C (dose: 400.0 micrograms/kg/injection, schedule: Q01DX005 (ip), vehicle: saline + alcohol): 94 % of control | T/C (dose: 800.0 micrograms/kg/injection, schedule: Q01DX005 (ip), vehicle: saline + alcohol): 105 % of control

CC(C)c1ccc(C(Cc2ccccc2)N(CCO)CCO)cc1 (stereo not drawn)
T/C (dose: 12.5 mg/kg/injection, schedule: Q01DX005 (ip), vehicle: Klucel (hydroxypropylcellulose) (HPC)): 105 % of control | T/C (dose: 25.0 mg/kg/injection, schedule: Q01DX005 (ip), vehicle: Klucel (hydroxypropylcellulose) (HPC)): 104 % of control | T/C [6]: 99 % of control and 91 % of control
